EC50 and IC50 data for one compound are collected here from ChEMBL document CHEMBL1201862, “PubChem BioAssay data set” (2004).

Common to all, as to assay type: functional
In assay [1] the target is 5-hydroxytryptamine receptor 5A (Homo sapiens, UniProt P47898). The assay can be described thus: Counterscreen for agonists of OPRM1-OPRD1 heterodimerization: luminescence-based cell-based high throughput dose response assay to identify agonists of 5-hydroxytryptamine (serotonin) 5A receptor (HTR5A). [Related pubchem assays (depositor defined):AID504326, AID504355, AID504692, AID504904, AID504905].

The target in assay [2] is T1, High affinity choline transporter 1 (Homo sapiens, UniProt Q9GZV3).
T1 sequence (Q9GZV3 whole entry): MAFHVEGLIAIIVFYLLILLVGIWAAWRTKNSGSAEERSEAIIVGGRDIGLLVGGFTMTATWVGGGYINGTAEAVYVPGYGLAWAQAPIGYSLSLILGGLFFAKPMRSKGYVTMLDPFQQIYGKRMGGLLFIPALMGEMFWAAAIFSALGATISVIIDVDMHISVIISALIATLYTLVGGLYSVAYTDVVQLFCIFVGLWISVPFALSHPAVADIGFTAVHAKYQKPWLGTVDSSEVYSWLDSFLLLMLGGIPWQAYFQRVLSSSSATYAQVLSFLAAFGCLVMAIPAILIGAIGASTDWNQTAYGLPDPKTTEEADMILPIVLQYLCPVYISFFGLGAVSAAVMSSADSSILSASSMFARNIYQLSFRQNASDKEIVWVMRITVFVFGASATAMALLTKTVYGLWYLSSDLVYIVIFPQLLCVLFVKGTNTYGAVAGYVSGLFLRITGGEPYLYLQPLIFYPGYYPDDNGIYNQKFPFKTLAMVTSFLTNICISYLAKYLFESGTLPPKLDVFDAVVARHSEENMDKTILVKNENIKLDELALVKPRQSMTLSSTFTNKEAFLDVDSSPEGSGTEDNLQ
The experiment in a line: CHT inhibitors, dose response, cell-based, 5-point CRC, membrane potential dye (AID 504840).

The target in assay [3] is Mu-type opioid receptor (Homo sapiens, UniProt P35372). The assay can be described thus: Counterscreen for agonists of heterodimerization of the mu 1 (OPRM1) and delta 1 (OPRD1) opioid receptors: Luminescence-based cell-based high throughput dose response assay to identify agonists of OPRM1 homodimerization.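 Note: U2OS cells expressing OPRM1 and beta-arrestin as split beta-galactosidase partners.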
Assay [4] deals with Delta-type opioid receptor (Homo sapiens, UniProt P41143). The assay can be described thus: Counterscreen for agonists of heterodimerization of the mu 1 (OPRM1) and delta 1 (OPRD1) opioid receptors: Luminescence-based cell-based high throughput dose response assay to identify agonists of OPRD1 homodimerization. [Related pubchem assays (depositor defined):AID504326, AID504355, AID504692, AID504904, AID504905].

For assay [5], the target named is T2, Short transient receptor potential channel 4 (Mus musculus, UniProt Q9QUQ5).
T2 sequence (Q9QUQ5 whole entry): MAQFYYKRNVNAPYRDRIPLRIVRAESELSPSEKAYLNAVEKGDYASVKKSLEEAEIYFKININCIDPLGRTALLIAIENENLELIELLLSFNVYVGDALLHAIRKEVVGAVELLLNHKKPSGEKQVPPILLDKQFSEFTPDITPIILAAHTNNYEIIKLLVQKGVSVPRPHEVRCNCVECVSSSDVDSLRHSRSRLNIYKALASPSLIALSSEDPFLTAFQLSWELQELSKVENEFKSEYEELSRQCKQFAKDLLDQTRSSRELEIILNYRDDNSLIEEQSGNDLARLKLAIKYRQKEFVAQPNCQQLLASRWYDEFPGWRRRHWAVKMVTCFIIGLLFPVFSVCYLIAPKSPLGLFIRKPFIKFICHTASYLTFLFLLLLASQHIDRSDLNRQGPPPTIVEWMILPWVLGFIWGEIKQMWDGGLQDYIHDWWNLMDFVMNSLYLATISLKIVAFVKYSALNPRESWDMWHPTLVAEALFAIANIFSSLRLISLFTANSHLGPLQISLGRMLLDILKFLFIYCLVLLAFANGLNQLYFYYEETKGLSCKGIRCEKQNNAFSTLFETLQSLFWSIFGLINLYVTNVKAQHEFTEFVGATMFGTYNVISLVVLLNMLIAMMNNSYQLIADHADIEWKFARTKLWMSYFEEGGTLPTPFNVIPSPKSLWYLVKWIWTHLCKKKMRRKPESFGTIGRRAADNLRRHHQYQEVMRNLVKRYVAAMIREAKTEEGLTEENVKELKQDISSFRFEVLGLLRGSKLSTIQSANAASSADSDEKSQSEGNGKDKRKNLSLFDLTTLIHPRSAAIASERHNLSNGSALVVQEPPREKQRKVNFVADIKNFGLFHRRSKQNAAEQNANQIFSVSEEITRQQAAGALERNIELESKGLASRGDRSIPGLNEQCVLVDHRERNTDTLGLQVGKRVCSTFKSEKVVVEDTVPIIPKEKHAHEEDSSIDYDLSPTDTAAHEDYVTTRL
The experiment in a line: mouse TRPC4 channel activators, dose response, cell-based, HEK293 TRPC4/mu-opioid, Fluo-4 calcium (AID 434937).

For assay [6], the target named is T1, High affinity choline transporter 1. The assay can be described thus: CHT inhibitors, dose response, cell-based, 10-point CRC, membrane potential dye (AID 588401).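 Note: membrane potential dye fluorescence of choline-evoked depolarization via CHT.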

The source made the active and inactive calls.

Sequence of Delta-type opioid receptor (P41143 whole entry): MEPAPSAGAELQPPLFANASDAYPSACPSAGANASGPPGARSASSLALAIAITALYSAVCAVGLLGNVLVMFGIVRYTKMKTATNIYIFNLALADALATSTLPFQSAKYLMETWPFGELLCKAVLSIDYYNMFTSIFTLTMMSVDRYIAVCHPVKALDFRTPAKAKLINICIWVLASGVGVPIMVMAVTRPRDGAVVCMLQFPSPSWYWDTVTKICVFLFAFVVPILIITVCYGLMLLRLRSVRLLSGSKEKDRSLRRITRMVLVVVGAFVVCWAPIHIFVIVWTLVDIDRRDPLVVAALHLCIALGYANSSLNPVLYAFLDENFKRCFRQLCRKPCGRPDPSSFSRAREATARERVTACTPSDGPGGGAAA
Sequence of Mu-type opioid receptor (P35372 whole entry): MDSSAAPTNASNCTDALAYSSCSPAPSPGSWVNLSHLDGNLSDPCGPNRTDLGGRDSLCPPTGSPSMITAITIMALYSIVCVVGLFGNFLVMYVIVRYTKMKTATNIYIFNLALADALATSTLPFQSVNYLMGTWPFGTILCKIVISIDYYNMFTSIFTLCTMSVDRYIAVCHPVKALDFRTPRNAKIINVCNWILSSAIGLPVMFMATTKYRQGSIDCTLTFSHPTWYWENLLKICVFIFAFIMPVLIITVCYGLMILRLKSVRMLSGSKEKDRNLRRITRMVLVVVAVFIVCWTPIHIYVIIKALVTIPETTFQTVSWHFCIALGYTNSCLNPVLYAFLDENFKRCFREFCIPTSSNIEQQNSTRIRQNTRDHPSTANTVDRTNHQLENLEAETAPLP
Sequence of 5-hydroxytryptamine receptor 5A (P47898 whole entry): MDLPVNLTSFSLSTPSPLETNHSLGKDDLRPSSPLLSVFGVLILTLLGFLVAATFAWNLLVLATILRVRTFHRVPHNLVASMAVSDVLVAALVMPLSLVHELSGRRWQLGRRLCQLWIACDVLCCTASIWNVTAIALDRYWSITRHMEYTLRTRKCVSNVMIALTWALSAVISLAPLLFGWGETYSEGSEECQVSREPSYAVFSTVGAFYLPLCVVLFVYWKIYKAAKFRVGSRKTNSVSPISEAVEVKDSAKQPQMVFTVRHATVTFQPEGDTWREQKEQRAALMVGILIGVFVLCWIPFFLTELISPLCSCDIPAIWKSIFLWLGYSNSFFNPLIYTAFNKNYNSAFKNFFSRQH

A word on the EC50: it is the concentration needed to bring the measured effect to its halfway point. For orientation: IC50 means the concentration at which inhibition is half-maximal. Take `CCOc1ccc(S(=O)(=O)Nc2cccc(C(=O)NCC(c3ccccc3)N(C)C)c2)cc1` (stereo unspecified): the EC50 in assay [1] is > 92.5 µM (inactive); in assay [3], > 92.5 µM (inactive); in assay [4] it was 14.1 µM (inactive); in assay [5], 2.99 µM (active). The values for the IC50 in assay [2] and in assay [6] were 4.43 µM (active) and 3.76 µM (active), respectively.
